Test results taken from patent US20240150277A1, “Covalent PPARG inverse-agonists” (Bayer Aktiengesellschaft, priority 2022, published 2024).
Read-outs that look alike come from different tables or passages of the source.

Columns and labels:
[1] = tested on: UMUC9 cells; experiment: Proliferation UMUC9 H2B-GFP assay (Incucyte); type: cell-based; conditions: 7 days of treatment; for IC50: Day 1 subtracted, percentage of DMSO control; for Emax: UM-UC-9, 168 h
Protocol: Proliferation UMUC9 H2B-GFP assay
Instrument: Incucyte® (Sartorius).
Description: Incucyte® Proliferation Assay measures cell proliferation based on nuclei count using live-cell time-lapse imaging. […] Measurements were performed on the day of treatment (Day 1 reading) and after 7 days of treatment (Day 8 reading). Green fluorescence in cell nuclei is measured using the instrument (Image Channels: Phase, Green; Acquisition time: 300 ms; Magnification: 4×).
Analysis: Selected metrics for analysis: Phase Object Confluence (Percent), Nuclei Count (1/Well) and Total Nuclei Area (μm^2/Well). Day 1 measurements were subtracted from each Day 8 measurement and expressed as percentage of the vehicle (DMSO) control. Percentage proliferation values were then plotted against compound concentration using GraphPad PRISM software. The Sigmoidal 4PL X is log (concentration) model of […] was used. Relative IC50 values and % efficacy (span) is reported below.

[2] = biological target: T1, PPARG receptors (Homo sapiens, UniProt P37231); experiment: RT-112-FABP4-NLuc Reporter Gene Assay (inverse agonism); type: cell-based; conditions: incubated over night; for IC50 / PPARG_RT-112_FABP4_NLuc_inverse agonist Efficacy - [%]: bladder cancer cell line RT-112/84, NanoLuc in FABP4 3′ UTR; for IC50: 50 μM to 0.03 nM; for Emax: RT112/84, read-out: PPARG_RT-112_FABP4_NLuc_inverse agonist Efficacy - [%], bladder cancer cell line RT-112/84, NanoLuc in FABP4 3′ UTR
T1 construct: leading to PPARG dependent expression of the NanoLuc@ Luciferase; endogenous in cells
T1 sequence (P37231 1-505): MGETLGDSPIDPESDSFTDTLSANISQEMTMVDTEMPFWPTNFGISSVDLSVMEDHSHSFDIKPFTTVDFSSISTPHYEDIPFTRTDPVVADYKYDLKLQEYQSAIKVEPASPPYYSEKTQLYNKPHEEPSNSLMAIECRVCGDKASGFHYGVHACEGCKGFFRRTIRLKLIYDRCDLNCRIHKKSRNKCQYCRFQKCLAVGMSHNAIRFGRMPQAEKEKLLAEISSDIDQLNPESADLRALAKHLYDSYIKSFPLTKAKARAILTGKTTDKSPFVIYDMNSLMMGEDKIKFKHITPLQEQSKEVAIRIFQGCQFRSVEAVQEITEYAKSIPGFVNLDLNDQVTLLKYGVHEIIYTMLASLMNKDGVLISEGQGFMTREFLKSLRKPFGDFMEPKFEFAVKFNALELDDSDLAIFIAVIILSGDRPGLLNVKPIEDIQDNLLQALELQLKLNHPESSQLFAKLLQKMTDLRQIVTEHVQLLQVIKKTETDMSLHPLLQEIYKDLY
Protocol: Inverse agonists reduce the basal expression of the Luciferase resulting in a decrease of the Luciferase signal after addition of substrate and cell lysis. To exclude toxic effects of the compounds a parallel measurement of cell viability was performed based on the CellTiter Glo Assay (Promega).
On the next day 10 μl of test compounds dissolved in DMEM/F12 2% FBS and 0,01% BSA are placed in the wells of the microtiter plates. Final concentrations ranged from 50 μM to 0.03 nM. […] On the next day the NanoLuc Luciferase activity was measured by addition of 40 μl of NanoLuc substrate and lysis buffer (Promega, Madison, Wisconsin) diluted in 2 mM Ca-tyrode buffer (20 mM HEPES, 130 mM NaCl, 5 mM KCl, 5 mM NaHCO3, 2 mM MgCl2, pH 7,4). The resulting light signal was measured for 60 seconds in a luminometer. Every sample was tested in quadruples and mean values were used to calculate the IC50 values and efficacies of the compounds.

[3] = relative IC50, read-out: UM-UC-9 GFP proliferation IC50 -
[4] = PPARG_RT-112_FABP4_NLuc_inverse agonist IC50 - [mol/l]

Compound	IC50 [2, 4]	Emax [2]	Emax ([1]; % efficacy (span))	IC50 ([1]; UM-UC-9, relative IC50)	further results
Cc1cc(OC(F)F)ccc1NC(=O)c1cc(C(=O)NCc2ccccc2O)c(F)cc1Cl [Example 1, 4-chloro-N^3-[4-(difluoromethoxy)-2-methylphenyl]-6-fluoro-N′-[(2-hydroxyphenyl)methyl]benzene-1,3-dicarboxamide]	3.8 nM	83.5%	51.4%	2.89 nM	–
Cc1cc(OC(F)F)ccc1NC(=O)c1cc(C(=O)NC(CO)c2ccc(F)cc2)c(F)cc1Cl (stereo not drawn) [Example 2, 4-chloro-N^3-[4-(difluoromethoxy)-2-methylphenyl]-6-fluoro-N^1-[1-(4-fluorophenyl)-2-hydroxyethyl]benzene-1,3-dicarboxamide]	33 nM	110%	72.7%	204 nM	–
O=C(NCc1ccccc1)c1cc(Cl)c(Cl)c(C(=O)Nc2ccccc2)c1 [Example 16, N1-benzyl-4,5-dichloro-N^3-phenylbenzene-1,3-dicarboxamide]	–	–	24.8%	24.7 nM	–
O=C(NCc1ccccc1)c1cc(C(=O)Nc2ccccc2)c(Cl)cc1F [Example 28, N^1-benzyl-4-chloro-6-fluoro-N^3-phenylbenzene-1,3-dicarboxamide]	–	–	31.2%	–	–
Cc1cc(N2CCOCC2)cnc1NC(=O)c1cc(C(=O)NCc2ccc(F)c(F)c2)c(F)cc1Cl [Example 41, 4-chloro-N^1-(3,4-difluorobenzyl)-6-fluoro-N^3-(3-methyl-5-morpholinopyridin-2-yl)isophthalamide]	–	–	98.9%	–	–
O=C(NCc1ccccc1)c1ccc(Cl)c(C(=O)Nc2ccccc2)c1 [Example 43, N^1-benzyl-4-chloro-N^3-phenylbenzene-1,3-dicarboxamide]	–	–	27.1%	–	–
O=C(NCc1ccc(F)cc1)c1ccc(Cl)c(C(=O)Nc2ccccc2)c1 [Example 45, 4-chloro-N^1-[(4-fluorophenyl)methyl]-N^3-phenylbenzene-1,3-dicarboxamide]	–	–	57.6%	–	–
COc1ccccc1CNC(=O)c1ccc(Cl)c(C(=O)Nc2ccccc2)c1 [Example 46, 4-chloro-N^1-[(2-methoxyphenyl)methyl]-N^3-phenylbenzene-1,3-dicarboxamide]	–	–	70.6%	2630 nM	–
O=C(NCc1ccccc1)c1ccc(Br)c(C(=O)Nc2ccccc2)c1 [Example 48, N^1-benzyl-4-bromo-N^3-phenylbenzene-1,3-dicarboxamide]	–	–	43.1%	–	–
CC(C)(O)c1ccc(NC(=O)c2cc(C(=O)NCc3ccc(F)c(F)c3)c(F)cc2Cl)cc1 [Example 51, 4-chloro-N^1-[(3,4-difluorophenyl)methyl]-6-fluoro-N^3-[4-(2-hydroxypropan-2-yl)phenyl]benzene-1,3-dicarboxamide]	–	–	69.2%	38.5 nM	–

Continued, in another order:

IC50 [2, 4]	Emax [2]	Compound	Emax ([1]; % efficacy (span))	IC50 ([1]; UM-UC-9, relative IC50)	further results
1.27 nM	116%	Cc1cc(N2CCCC(O)C2)ccc1NC(=O)c1cc(C(=O)NCc2ccc(F)c(F)c2)c(F)cc1Cl (single isomer, unassigned) [Example 5, 4-chloro-N′-[(3,4-difluorophenyl)methyl]-6-fluoro-N^3-{4-[3-hydroxypiperidin-1-yl]-2-methylphenyl}benzene-1,3-dicarboxamide]	–	–	UM-UC-9 GFP proliferation Efficacy - [%] ([1]; % efficacy (span)): 78.67%; IC50 [1, 3]: 5.38 nM
4.1 nM	–	Cc1cc(N2CCCC(O)C2)ccc1NC(=O)c1cc(C(=O)NCc2ccc(F)c(F)c2)c(F)cc1Cl (single isomer, unassigned) [Example 6, 4-chloro-N′-[(3,4-difluorophenyl)methyl]-6-fluoro-N^3-{4-[3-hydroxypiperidin-1-yl]-2-methylphenyl}benzene-1,3-dicarboxamide]	79.5%	–	IC50 [1, 3]: 21.7 nM; PPARG_RT-112_FABP4_NLuc_inverse agonist Efficacy - [%] [2]: 134.50%
130 nM	–	Cc1cc(C(F)(F)F)ccc1NC(=O)c1cc(C(=O)NC(CO)c2ccccc2)c(F)cc1Cl (single isomer, unassigned) [Example 29, 4-chloro-6-fluoro-N^1-[(1R*)-2-hydroxy-1-phenylethyl]-N^3-[2-methyl-4-(trifluoromethyl)phenyl]benzene-1,3-dicarboxamide]	–	–	PPARG_RT-112_FABP4_NLuc_inverse agonist Efficacy - [%] [2]: 81.00%
17.5 nM	–	Cc1cc(C(F)(F)F)ccc1NC(=O)c1cc(C(=O)NC(CO)c2ccccc2)c(F)cc1Cl (single isomer, unassigned) [Example 30, 4-chloro-6-fluoro-N^1-[(1R*)-2-hydroxy-1-phenylethyl]-N^3-[2-methyl-4-(trifluoromethyl)phenyl]benzene-1,3-dicarboxamide]	49.6%	66.1 nM	PPARG_RT-112_FABP4_NLuc_inverse agonist Efficacy - [%] [2]: 105.50%
3.15 nM	90.5%	O=C(NCc1ccc(F)c(F)c1)c1cc(C(=O)Nc2ccc(OC(F)F)cc2)c(Cl)cc1F [Example 3, 4-chloro-N^3-[4-(difluoromethoxy)phenyl]-N^1-[(3,4-difluorophenyl)methyl]-6-fluorobenzene-1,3-dicarboxamide]	–	> 6000 nM	–
8.35 nM	87%	CCCOCc1cc(F)ccc1CNC(=O)c1cc(C(=O)Nc2ccc(C(F)(F)F)cc2C)c(Cl)cc1F [Example 4, 4-chloro-6-fluoro-N^1-{[4-fluoro-2-(propoxymethyl)phenyl]methyl}-N^3-[2-methyl-4-(trifluoromethyl)phenyl]benzene-1,3-dicarboxamide]	138%	3.22 nM	–
1.4 nM	102%	Cc1cc(OC(F)F)ccc1NC(=O)c1cc(C(=O)NCc2ccc(F)c(F)c2)cc(Cl)c1Cl [Example 7, 4,5-dichloro-N^3-[4-(difluoromethoxy)-2-methylphenyl]-N^1-[(3,4-difluorophenyl)methyl]benzene-1,3-dicarboxamide]	64.9%	9.09 nM	–
0.9 nM	96%	Cc1cc(OCCO)ccc1NC(=O)c1cc(C(=O)NCc2ccc(F)c(F)c2)cc(Cl)c1Cl [Example 8, 4,5-dichloro-N^1-[(3,4-difluorophenyl)methyl]-N^3-[4-(2-hydroxyethoxy)-2-methylphenyl]benzene-1,3-dicarboxamide]	71.5%	32.2 nM	–
0.355 nM	105%	Cc1cccc(-c2nc3cc(NC(=O)c4cc(C(=O)NCc5ccc(F)cc5)cc(Cl)c4Cl)ccc3o2)c1 [Example 9, 4,5-dichloro-N^1-[(4-fluorophenyl)methyl]-N^3-[2-(3-methylphenyl)-1,3-benzoxazol-5-yl]benzene-1,3-dicarboxamide]	58.1%	4.51 nM	–
–	108%	Cc1cc(-c2nnco2)ccc1NC(=O)c1cc(C(=O)NCc2ccc(F)c(F)c2)c(F)cc1Cl [Example 10, 4-chloro-N^1-[(3,4-difluorophenyl)methyl]-6-fluoro-N^3-[2-methyl-4-(1,3,4-oxadiazol-2-yl)phenyl]benzene-1,3-dicarboxamide]	86.7%	–	IC50 ([2]; read-out: PPARG_RT-112_FABP4_NLuc_inverse agonist IC50 - [mol/l]): 4.8 nM
1.3 nM	74%	O=C(NCc1ccccc1)c1cc(Cl)c(Cl)c(C(=O)Nc2ccc(Cl)cn2)c1F [Example 32, N^1-benzyl-4,5-dichloro-N^3-(5-chloropyridin-2-yl)-2-fluorobenzene-1,3-dicarboxamide]	–	–	–
